# From US3988466A, “Prevention of gastric lesions” (priority 1973, dated 1976)
# Key:
# [1] = test system: indomethacin-induced gastric lesions in pylorus-ligated rats; assay: Effect of L-glutamine on indomethacin-induced gastric lesions in pylorus-ligated rats (Experiment 2); format: in vivo, male Donryu strain rats; settings: for Ulcer index / Inhibition: indomethacin 20 mg/kg i.p.; for Inhibition: vs control ulcer index
# Description: In this Experiment, 8 groups of male Donryu strain rats are used. The animals are fasted for 24 hours but water is allowed ad libitum. Under ether anesthesia, the pylorus is ligated according to the standard method of Shay et al. Seven groups are treated with graded doses of L-glutamine suspended in 1% carboxymethylcellulose solution by oral administration immediately after the pylorus ligation. An eighth group (control) is treated with 5 ml/kg of 1% carboxymethylcellulose solution alone. Following a control period of 10 minutes, the animals are treated with 20 mg/kg of indomethacin suspended in a trace amount of Tween 80 (trade name of Atlas Chemical Industries Inc., U.S.A.) by intraperitoneal injection. Thereafter, the animals are treated in the same manner as described in Experiment 1 and the length of lesions is measured.
# [2] = test system: acetic acid-induced writhing response in mice; assay: Effect of L-glutamine on analgesic activity of aspirin in mice (Experiment C); format: in vivo, male dd strain mice; settings: presence of L-glutamine
# Description: In this Experiment, 3 groups of male dd strain mice weighing 19-21 g are used.
# As a control, the third group is treated only with 1% carboxymethylcellulose solution. After a control period of one hour, the animals are treated with 0.2 ml of 0.7% acetic acid solution in physiological saline by intraperitoneal injection, according to the method of Koster et al. [Koster, R. et al: Fed. Proc., 18, 412 (1959)]. Starting 10 minutes after the administration of acetic acid, the number of writhing reaction occurred in 10 minutes is counted.
# experimental ulcers = settings: induced by stress, pylorus ligation, histamine, reserpine or cortisone; cited from earlier work
smiles,measurement,setting,value
NC(=O)CC[C@H](N)C(=O)O [L-glutamine],effect on the prevention of indomethacin-induced gastric lesions,[1]; L-glutamine 15.6 mg/kg,no effect
same,Ulcer index,[1]; L-glutamine 15.6 mg/kg oral,12.1±3.5 mm
same,Inhibition,[1]; L-glutamine 15.6 mg/kg oral,3.2%
same,inhibition of gastric lesions (in words),[1]; L-glutamine 31.3 mg/kg,fairly inhibits the gastric lesions but the inhibition is not significant
same,Ulcer index,[1]; L-glutamine 31.3 mg/kg oral,5.0±1.1 mm
same,Inhibition,[1]; L-glutamine 31.3 mg/kg oral,60.0%
same,prevention of indomethacin-induced gastric lesions,[1]; L-glutamine 62.5 mg/kg - 1000 mg/kg,effective for the prevention of indomethacin-induced gastric lesions
same,Ulcer index,[1]; L-glutamine 62.5 mg/kg oral,2.6±0.8 mm
same,Inhibition,[1]; L-glutamine 62.5 mg/kg oral,79.2%
same,Ulcer index,[1]; L-glutamine 125 mg/kg oral,3.9±1.5 mm
same,Inhibition,[1]; L-glutamine 125 mg/kg oral,68.8%
same,Ulcer index,[1]; L-glutamine 250 mg/kg oral,2.4±0.4 mm
same,Inhibition,[1]; L-glutamine 250 mg/kg oral,80.8%
same,Ulcer index,[1]; L-glutamine 500 mg/kg oral,1.6±0.7 mm
same,Inhibition,[1]; L-glutamine 500 mg/kg oral,87.2%
same,Ulcer index,"[1]; L-glutamine 1,000 mg/kg oral",0.5±0.3 mm
same,Inhibition,"[1]; L-glutamine 1,000 mg/kg oral",96.0%
same,influence on analgesic activity of aspirin,[2],not substantially influenced
same,prevention or treatment of certain experimental ulcers,experimental ulcers,effective for the prevention or treatment of certain experimental ulcers
